From patent US20100130549A1, “PSYCHOTROPIC COMPOUNDS, COMPOSITIONS AND METHODS OF USE” (priority 2007, published 2010)

Tests used:
[1] = test system: BALB/c mice; assay: Open field test
[2] = test system: ICR male mice; assay: Subchronic ip administration (toxicity); type: in vivo
Description: […]. Except for this local irritation no other toxicity was noted.
[…]. […] Except of these local irritations no other toxicity was noted.

[3] = test system: BALB/c mice; assay: Rotor rod test (motor activity); type: in vivo; conditions: 10 mg/kg p.o., 90 min after administration; vs controls
Description: The test was performed 90 min after oral administration of the compounds. […] The rotor rod test involves placing the mouse on an elevated rotating bar. In this test, the mouse is placed on the bar such that it is facing the direction opposite to the rotation of the rod. The time lag to fall is determined.

[4] = test system: BALBc male mice; assay: Hot plate test; type: in vivo; conditions: 10 mg/kg orally (sertraline equimolar); vs vehicle treated control
Description: The hot-plate test is widely used to measure pain sensation. The latency in response to heat of mice and rats feet is based on the method described by Eddy et al., Synthetic analgesics. II. […] The method is based on placing an animal on heated (52-56 C) surface and measuring the time to response (raising paw, licking of the paw, jumping or running.
The animals were followed for 6 hr.

[5] = 10 and 30 mg/kg ip ×3/week for 2 weeks, sertraline equimolar
[6] = 10 mg/kg (equimolar) ip 1 hr prior, p<0.001 vs controls

OCCCC#Cc1cc2c(cc1OC[C@@H]1CNCC[C@H]1c1ccc(F)cc1)OCO2 [If]
sedative effect accompanying the anxiolytic activity ([1]; orally 90 min prior): not accompanied by a sedative effect

CN[C@H]1CC[C@@H](c2ccc(Cl)c(Cl)c2)c2ccccc21 [sertraline, reference compound]
body weight gain versus controls [2, 5]: no difference
chemistry blood picture [2, 5]: did not show a significant change
histopathology of heart, spleen, liver and kidney ([2]; high dose of 30 mg/kg ip, subchronic, capsule of the abdominal organs): minimal to mild irritation
total time spent in the center (areas 2+3) ([1]; 10 mg/kg (equimolar) ip 1 hr prior): significantly increase
frequency to the center ([1]; 10 mg/kg (equimolar) ip 1 hr prior, controls 1.23): 1.27
distance moved [1, 6]: significantly increase
velocity [1, 6]: significantly increase
muscle strength and basic motor activity [3]: did not modify
latency to heat sensation [4]: significantly increase
